Laboratory results as given in ChEMBL document CHEMBL5126592, “Design, synthesis and activity against drug-resistant bacteria evaluation of C-20, C-23 modified 5-O-mycaminosyltylonolide derivatives” (Eur J Med Chem, 2022).
Converted amounts (≈) assume the structure as drawn. The source made the active and inactive calls. No cut-off for these calls is given here.

Legend:
[1] = Genotoxicity in Salmonella typhimurium TA98 assessed as number of revertants at 1.6x10^-6 mg/plate incubated for 72 hrs in presence of liver S9 fraction by Ames test (reference value: 43.67+/- 7.1); format: toxicity, subcellular; conditions: salmonella enterica subsp. enterica serovar typhimurium, s9, 72 h
[2] = Genotoxicity in Salmonella typhimurium TA98 assessed as number of revertants at 1x10^-3 mg/plate incubated for 72 hrs in presence of liver S9 fraction by Ames test (reference value: 43.67+/- 7.1); format: toxicity, subcellular; conditions: salmonella enterica subsp. enterica serovar typhimurium, s9, 72 h
[3] = Genotoxicity in Salmonella typhimurium TA98 assessed as number of revertants at 2x10^-4 mg/plate incubated for 72 hrs in presence of liver S9 fraction by Ames test (reference value: 43.67+/- 7.1); format: toxicity, subcellular; conditions: salmonella enterica subsp. enterica serovar typhimurium, s9, 72 h
[4] = Toxicity in Kunming mouse infected with Staphylococcus aureus ATCC 25923 assessed as hyperelastic lung tissue at 20 to 40 mg/kg, iv measured after 1 hr by hematoxylin and eosin staining based microscopic analysis; format: organism-based; conditions: in vivo, dose 20-40 mg/kg
Staphylococcus aureus [5] = assay: Antibacterial activity against Staphylococcus aureus ATCC 25923 infected in kunming mouse assessed as reduction in lung congestion at 20 to 40 mg/kg, iv measured after 1 hr by hematoxylin and eosin staining based microscopic analysis; format: functional, organism-based; conditions: dose 20-40 mg/kg
Staphylococcus aureus [6] = assay: Antibacterial activity against Staphylococcus aureus ATCC 29213 incubated for 16 to 20 hrs using 10^7 CFU/ml bacterial inoculum by broth microdilution method; format: functional; conditions: time 16-20 hrs
Staphylococcus aureus [7] = assay: Antibacterial activity against Staphylococcus aureus ATCC 29213 incubated for 16 to 20 hrs using 10^5 CFU/ml bacterial inoculum by broth microdilution method; format: functional; conditions: time 16-20 hrs
Staphylococcus aureus [8] = assay: Antibacterial activity against Staphylococcus aureus ATCC 29213 incubated for 16 to 20 hrs using 10^4 CFU/ml bacterial inoculum by broth microdilution method; format: functional; conditions: time 16-20 hrs
Staphylococcus aureus [9] = assay: Antibacterial activity against Staphylococcus aureus ATCC 29213 incubated for 16 to 20 hrs using 10^3 CFU/ml bacterial inoculum by broth microdilution method; format: functional; conditions: time 16-20 hrs
Escherichia coli [10] = assay: Antibacterial activity against Escherichia coli ATCC 25922 incubated for 16 to 20 hrs using 10^6 CFU/ml bacterial inoculum by broth microdilution method; format: functional; conditions: time 16-20 hrs
Escherichia coli [11] = assay: Antibacterial activity against Escherichia coli ATCC 25922 incubated for 16 to 20 hrs using 10^3 CFU/ml bacterial inoculum by broth microdilution method; format: functional; conditions: time 16-20 hrs
Escherichia coli [12] = assay: Antibacterial activity against Escherichia coli ATCC 25922 at pH 6.6 incubated for 16 to 20 hrs by broth microdilution method; format: functional; conditions: time 16-20 hrs
Escherichia coli [13] = assay: Antibacterial activity against Escherichia coli ATCC 25922 at pH 7.2 incubated for 16 to 20 hrs by broth microdilution method; format: functional; conditions: time 16-20 hrs
Cronobacter sakazakii = assay: Antibacterial activity against Cronobacter sakazakii ATCC 29544 incubated for 16 to 20 hrs by broth microdilution method; format: functional; conditions: time 16-20 hrs
Staphylococcus aureus [14] = assay: Bactericidal activity against Staphylococcus aureus ATCC 29213 incubated for 20 to 24 hrs by CLSI based analysis; format: functional; conditions: time 20-24 hrs
Staphylococcus aureus [15] = assay: Antibacterial activity against Staphylococcus aureus ATCC 29213 incubated for 16 to 20 hrs by broth microdilution method; format: functional; conditions: time 16-20 hrs
Staphylococcus aureus [16] = assay: Ratio of MBC to MIC for Staphylococcus aureus ATCC 29213; format: functional
Escherichia coli [17] = assay: Antibacterial activity against Escherichia coli ATCC 25922 at pH 7.4 incubated for 16 to 20 hrs by broth microdilution method; format: functional; conditions: time 16-20 hrs
Escherichia coli [18] = assay: Antibacterial activity against Escherichia coli ATCC 25922 at pH 8.6 incubated for 16 to 20 hrs by broth microdilution method; format: functional; conditions: time 16-20 hrs
Staphylococcus aureus [19] = assay: Antibacterial activity against Staphylococcus aureus ATCC 29213 at pH 7.2 incubated for 16 to 20 hrs by broth microdilution method; format: functional; conditions: time 16-20 hrs
Staphylococcus aureus [20] = assay: Antibacterial activity against Staphylococcus aureus ATCC 29213 at pH 8 incubated for 16 to 20 hrs by broth microdilution method; format: functional; conditions: time 16-20 hrs
Escherichia coli [21] = assay: Antibacterial activity against Escherichia coli ATCC 25922 incubated for 16 to 20 hrs in presence of 5% foetal bovine serum by broth microdilution method; format: functional; conditions: time 16-20 hrs
Escherichia coli [22] = assay: Antibacterial activity against Escherichia coli ATCC 25922 incubated for 16 to 20 hrs in presence of 50% foetal bovine serum by broth microdilution method; format: functional; conditions: time 16-20 hrs
Staphylococcus aureus [23] = assay: Antibacterial activity against Staphylococcus aureus ATCC 29213 at pH 8.6 incubated for 16 to 20 hrs in presence of 5% foetal bovine serum by broth microdilution method; format: functional; conditions: time 16-20 hrs
[24] = Genotoxicity in Salmonella typhimurium TA100 assessed as number of revertants at 1x10^-3 mg/plate incubated for 72 hrs in absence of liver S9 fraction by Ames test (reference value: 221.67 +/- 15.57); format: toxicity; conditions: salmonella enterica subsp. enterica serovar typhimurium, s9, 72 h
[25] = Genotoxicity in Salmonella typhimurium TA100 assessed as number of revertants at 1.6x10^-6 mg/plate incubated for 72 hrs in absence of liver S9 fraction by Ames test (reference value: 221.67 +/- 15.57); format: toxicity; conditions: salmonella enterica subsp. enterica serovar typhimurium, s9, 72 h
[26] = Genotoxicity in Salmonella typhimurium TA100 assessed as number of revertants at 2x10^-4 mg/plate incubated for 72 hrs in presence of liver S9 fraction by Ames test (reference value: 204.33 +/- 8.14); format: toxicity, subcellular; conditions: salmonella enterica subsp. enterica serovar typhimurium, s9, 72 h
[27] = Genotoxicity in Salmonella typhimurium TA100 assessed as number of revertants at 1.6x10^-6 mg/plate incubated for 72 hrs in presence of liver S9 fraction by Ames test (reference value: 204.33 +/- 8.14); format: toxicity, subcellular; conditions: salmonella enterica subsp. enterica serovar typhimurium, s9, 72 h
[28] = Genotoxicity in Salmonella typhimurium TA102 assessed as number of revertants at 2x10^-4 mg/plate incubated for 72 hrs in absence of liver S9 fraction by Ames test (reference value: 386.67 +/- 23.44); format: toxicity; conditions: salmonella enterica subsp. enterica serovar typhimurium, s9, 72 h
[29] = Genotoxicity in Salmonella typhimurium TA102 assessed as number of revertants at 8x10^-6 mg/plate incubated for 72 hrs in absence of liver S9 fraction by Ames test (reference value: 386.67 +/- 23.44); format: toxicity; conditions: salmonella enterica subsp. enterica serovar typhimurium, s9, 72 h
[30] = Genotoxicity in Salmonella typhimurium TA1535 assessed as number of revertants at 1x10^-3 mg/plate incubated for 72 hrs in absence of liver S9 fraction by Ames test (reference value: 14.33 +/- 0.58); format: toxicity; conditions: salmonella enterica subsp. enterica serovar typhimurium, s9, 72 h
[31] = Genotoxicity in Salmonella typhimurium TA1535 assessed as number of revertants at 4x10^-5 mg/plate incubated for 72 hrs in presence of liver S9 fraction by Ames test (reference value: 15.33 +/- 2.52); format: toxicity, subcellular; conditions: salmonella enterica subsp. enterica serovar typhimurium, s9, 72 h
[32] = Genotoxicity in Salmonella typhimurium TA1535 assessed as number of revertants at 1.6x10^-6 mg/plate incubated for 72 hrs in presence of liver S9 fraction by Ames test (reference value: 15.33 +/- 2.52); format: toxicity, subcellular; conditions: salmonella enterica subsp. enterica serovar typhimurium, s9, 72 h
[33] = Genotoxicity in Salmonella typhimurium TA1537 assessed as number of revertants at 2x10^-4 mg/plate incubated for 72 hrs in absence of liver S9 fraction by Ames test (reference value: 22.67 +/- 2.52); format: toxicity; conditions: salmonella enterica subsp. enterica serovar typhimurium, s9, 72 h
[34] = Genotoxicity in Salmonella typhimurium TA1537 assessed as number of revertants at 1.6x10^-6 mg/plate incubated for 72 hrs in presence of liver S9 fraction by Ames test (reference value: 20 +/- 5); format: toxicity, subcellular; conditions: salmonella enterica subsp. enterica serovar typhimurium, s9, 72 h

CC[C@H]1OC(=O)C[C@@H](O)[C@H](C)[C@@H](O[C@@H]2O[C@H](C)[C@@H](O)[C@H](N(C)C)[C@H]2O)[C@@H](CCN(C)Cc2cn(-c3cnc4ccccc4c3)nn2)C[C@@H](C)C(=O)/C=C/C(C)=C/[C@@H]1CN1CCCCCC1
Activity [1]: 42.33
Activity [2]: 40.33
Activity [3]: 44.33
Activity [4]: Non-Toxic
Activity (Staphylococcus aureus [5]): Active
MIC (Staphylococcus aureus [6]): 0.25 µg/mL (≈ 0.277 µM)
MIC (Staphylococcus aureus [7]): 0.125 µg/mL (≈ 0.139 µM)
MIC (Staphylococcus aureus [8]): 0.125 µg/mL (≈ 0.139 µM)
MIC (Staphylococcus aureus [9]): 0.0625 µg/mL (≈ 0.0693 µM)
MIC (Escherichia coli [10]): 0.5 µg/mL (≈ 0.554 µM)
MIC (Escherichia coli [11]): 0.25 µg/mL (≈ 0.277 µM)
MIC (Escherichia coli [12]): 32 µg/mL (≈ 35.5 µM)
MIC (Escherichia coli [13]): 1 µg/mL (≈ 1.11 µM)
MIC (Cronobacter sakazakii): 4 µg/mL (≈ 4.43 µM)
MBC (Staphylococcus aureus [14]): 0.25 µg/mL (≈ 0.277 µM)
MIC (Staphylococcus aureus [15]): 0.125 µg/mL (≈ 0.139 µM)
Ratio (Staphylococcus aureus [16]): 2
MIC (Escherichia coli [17]): 1 µg/mL (≈ 1.11 µM)
MIC (Escherichia coli [18]): 0.25 µg/mL (≈ 0.277 µM)
MIC (Staphylococcus aureus [19]): 0.5 µg/mL (≈ 0.554 µM)
MIC (Staphylococcus aureus [20]): ≤ 0.0625 µg/mL
MIC (Escherichia coli [21]): 1 µg/mL
MIC (Escherichia coli [22]): 4 µg/mL
MIC (Staphylococcus aureus [23]): 0.5 µg/mL
Activity [24]: 231
Activity [25]: 157.67
Activity [26]: 220.67
Activity [27]: 162.67
Activity [28]: 449.33
Activity [29]: 425.33
Activity [30]: 5
Activity [31]: 15
Activity [32]: 16.33
Activity [33]: 15.67
Activity [34]: 15
